Reference: patent EP0238060B1, “Cephalosporin derivatives, processes for their preparation and antibacterial agents” (Banyu Pharmaceutical Co., Ltd., priority 1986, dated 1987)
In brackets after ≈: the same amount, converted by molar mass. Where two headings read alike, the source gives them in different places.

What was measured:
Experiment in all cases: In vitro antibacterial activity, agar plate dilution method (MIC)
[1] = system: Ps.cepacia 23; type: cell-based, Pseudomonas cepacia; settings: Burkholderia cepacia; Ps.cepacia 23; Mueller Hinton agar, inoculum 10⁶ CFU/ml, 37°C, 16 hours; read-out: Minimum Inhibitory Concentration (MIC: µg/ml)
[2] = system: S.aureus JS1; type: cell-based; settings: Staphylococcus aureus; S.aureus JS1 (β-Lactamase-producing strain); Mueller Hinton agar, inoculum 10⁶ CFU/ml, 37°C, 16 hours; read-out: Minimum Inhibitory Concentration (MIC: µg/ml)
[3] = system: S.aureus BB5703; type: cell-based; settings: Staphylococcus aureus; S.aureus BB5703; Mueller Hinton agar, inoculum 10⁶ CFU/ml, 37°C, 16 hours; read-out: Minimum Inhibitory Concentration (MIC: µg/ml)
[4] = system: E.cloacae 963; type: cell-based; settings: Enterobacter cloacae; E.cloacae 963; Mueller Hinton agar, inoculum 10⁶ CFU/ml, 37°C, 16 hours; read-out: Minimum Inhibitory Concentration (MIC: µg/ml)
[5] = system: K.pneumoniae No. 42; type: cell-based; settings: Klebsiella pneumoniae, read-out: Minimum Inhibitory Concentration (MIC: µg/ml)
[6] = system: E.coli GN5482; type: cell-based; settings: Escherichia coli; E.coli GN5482 (β-Lactamase-producing strain); Mueller Hinton agar, inoculum 10⁶ CFU/ml, 37°C, 16 hours; read-out: Minimum Inhibitory Concentration (MIC: µg/ml)
[7] = system: K.pneumoniae PCI-602; type: cell-based; settings: Klebsiella pneumoniae, PCI602; K.pneumoniae PCI-602; Mueller Hinton agar, inoculum 10⁶ CFU/ml, 37°C, 16 hours; read-out: Minimum Inhibitory Concentration (MIC: µg/ml)
[8] = system: E.cloacae Nek 39; type: cell-based; settings: Enterobacter cloacae, NEK39; E.cloacae Nek 39 (β-Lactamase-producing strain); Mueller Hinton agar, inoculum 10⁶ CFU/ml, 37°C, 16 hours; read-out: Minimum Inhibitory Concentration (MIC: µg/ml)
[9] = system: S.marcescens No. 16-2; type: cell-based; settings: Serratia marcescens, NO.162; S.marcescens No. 16-2 (β-Lactamase-producing strain); Mueller Hinton agar, inoculum 10⁶ CFU/ml, 37°C, 16 hours; read-out: Minimum Inhibitory Concentration (MIC: µg/ml)
[10] = system: M.morganii GN5407; type: cell-based; settings: Morganella morganii; M.morganii GN5407 (β-Lactamase-producing strain); Mueller Hinton agar, inoculum 10⁶ CFU/ml, 37°C, 16 hours; read-out: Minimum Inhibitory Concentration (MIC: µg/ml)
[11] = system: K.oxytoca GN10650; type: cell-based; settings: Klebsiella oxytoca; K.oxytoca GN10650 (β-Lactamase-producing strain); Mueller Hinton agar, inoculum 10⁶ CFU/ml, 37°C, 16 hours; read-out: Minimum Inhibitory Concentration (MIC: µg/ml)
[12] = system: C.freundii GN346/16; type: cell-based; settings: Citrobacter freundii; C.freundii GN346/16; Mueller Hinton agar, inoculum 10⁶ CFU/ml, 37°C, 16 hours; read-out: Minimum Inhibitory Concentration (MIC: µg/ml)
[13] = system: P.vulgaris HX-19; type: cell-based; settings: Proteus vulgaris, HX19; P.vulgaris HX-19; Mueller Hinton agar, inoculum 10⁶ CFU/ml, 37°C, 16 hours; read-out: Minimum Inhibitory Concentration (MIC: µg/ml)
[14] = system: E.coli CSH(RE45); type: cell-based; settings: Escherichia coli, 16 h, read-out: Minimum Inhibitory Concentration (MIC: µg/ml)
[15] = system: E.coli NIHJ JC2; type: cell-based; settings: Escherichia coli, NIHJJC2; E.coli NIHJ JC2; Mueller Hinton agar, inoculum 10⁶ CFU/ml, 37°C, 16 hours; read-out: Minimum Inhibitory Concentration (MIC: µg/ml)
[16] = system: M.luteus ATCC9341; type: cell-based; settings: Micrococcus luteus; M.luteus ATCC9341; Mueller Hinton agar, inoculum 10⁶ CFU/ml, 37°C, 16 hours; read-out: Minimum Inhibitory Concentration (MIC: µg/ml)
[17] = system: C.freundii GN346; type: cell-based; settings: Citrobacter freundii; C.freundii GN346 (β-Lactamase-producing strain); Mueller Hinton agar, inoculum 10⁶ CFU/ml, 37°C, 16 hours; read-out: Minimum Inhibitory Concentration (MIC: µg/ml)
[18] = system: Ps.aeruginosa AKR17; type: cell-based; settings: Pseudomonas aeruginosa; Ps.aeruginosa AKR17; Mueller Hinton agar, inoculum 10⁶ CFU/ml, 37°C, 16 hours; read-out: Minimum Inhibitory Concentration (MIC: µg/ml)
[19] = system: S.epidermidis IAM12012; type: cell-based; settings: Staphylococcus epidermidis; S.epidermidis IAM12012; Mueller Hinton agar, inoculum 10⁶ CFU/ml, 37°C, 16 hours; read-out: Minimum Inhibitory Concentration (MIC: µg/ml)
[20] = system: E.coli CSH2 (RK1); type: cell-based; settings: Escherichia coli, 16 h, read-out: Minimum Inhibitory Concentration (MIC: µg/ml)
[21] = system: P.vulgaris No. 33; type: cell-based; settings: Proteus vulgaris; P.vulgaris No. 33 (β-Lactamase-producing strain); Mueller Hinton agar, inoculum 10⁶ CFU/ml, 37°C, 16 hours; read-out: Minimum Inhibitory Concentration (MIC: µg/ml)
[22] = system: Ps.aeruginosa IFO3445; type: cell-based; settings: Pseudomonas aeruginosa; Ps.aeruginosa IFO3445; Mueller Hinton agar, inoculum 10⁶ CFU/ml, 37°C, 16 hours; read-out: Minimum Inhibitory Concentration (MIC: µg/ml)
[23] = system: S.marcescens IAM 1184; type: cell-based; settings: Serratia marcescens, read-out: Minimum Inhibitory Concentration (MIC: µg/ml)
[24] = system: S.aureus 209P NIHJ-JC1; type: cell-based; settings: Staphylococcus aureus; S.aureus 209P NIHJ-JC1; Mueller Hinton agar, inoculum 10⁶ CFU/ml, 37°C, 16 hours; read-out: Minimum Inhibitory Concentration (MIC: µg/ml)
[25] = system: Ps.aeruginosa AK 109; type: cell-based; settings: Pseudomonas aeruginosa, AK109; Ps.aeruginosa AK 109; Mueller Hinton agar, inoculum 10⁶ CFU/ml, 37°C, 16 hours; read-out: Minimum Inhibitory Concentration (MIC: µg/ml)
[26] = system: A.calcoaceticus No. 4; type: cell-based; settings: Acinetobacter calcoaceticus; A.calcoaceticus No. 4; Mueller Hinton agar, inoculum 10⁶ CFU/ml, 37°C, 16 hours; read-out: Minimum Inhibitory Concentration (MIC: µg/ml)
[27] = system: Ps.maltophilia GN 12873; type: cell-based, Pseudomonas maltophilia; settings: Stenotrophomonas maltophilia, GN12873; Ps.maltophilia GN 12873 (β-Lactamase-producing strain); Mueller Hinton agar, inoculum 10⁶ CFU/ml, 37°C, 16 hours; read-out: Minimum Inhibitory Concentration (MIC: µg/ml)
[28] = K.pneumoniae No. 42 (β-Lactamase-producing strain), Mueller Hinton agar, inoculum 10⁶ CFU/ml, 37°C, 16 hours
[29] = IAM1184, S.marcescens IAM 1184, Mueller Hinton agar, inoculum 10⁶ CFU/ml, 37°C, 16 hours

Row | SMILES | MIC [1] | MIC [2] | MIC [3] | MIC [4] | MIC [6] | MIC [7] | MIC [8] | MIC [9] | MIC [10] | MIC [11] | MIC [12] | MIC [13] | MIC [14] | MIC [15] | MIC [16] | MIC [17] | MIC [18] | MIC [19] | MIC [20] | MIC [21] | further results
1 | CC(C)ON=C(C(=O)NC1C(=O)N2C(C(=O)[O-])=C(C[n+]3ccc4cc(O)c(O)cc4c3)CS[C@H]12)c1csc(N)n1 (stereo partly drawn) [Ex. 2, 7-[2-(2-aminothiazol-4-yl)-2-isopropoxyiminoacetamido]-3-(6,7-dihydroxy-2-isoquinolinio)methyl-3-cephem-4-carboxylate] | 0.1 µg/mL (≈ 0.171 µM) | 12.5 µg/mL (≈ 21.4 µM) | 6.25 µg/mL (≈ 10.7 µM) | 0.025 µg/mL (≈ 0.0428 µM) | 0.39 µg/mL (≈ 0.667 µM) | < 0.006 µg/mL | 0.05 µg/mL (≈ 0.0855 µM) | 0.78 µg/mL (≈ 1.33 µM) | 0.05 µg/mL (≈ 0.0855 µM) | 0.39 µg/mL (≈ 0.667 µM) | 0.78 µg/mL (≈ 1.33 µM) | < 0.006 µg/mL | 0.39 µg/mL (≈ 0.667 µM) | 0.1 µg/mL (≈ 0.171 µM) | 0.1 µg/mL (≈ 0.171 µM) | 50 µg/mL (≈ 85.5 µM) | 25 µg/mL (≈ 42.8 µM) | 0.78 µg/mL (≈ 1.33 µM) | < 0.006 µg/mL | 0.05 µg/mL (≈ 0.0855 µM) | MIC [5, 28]: 0.025 µg/mL (≈ 0.0428 µM); MIC [22]: 0.78 µg/mL (≈ 1.33 µM); MIC [23, 29]: 0.0125 µg/mL (≈ 0.0214 µM); MIC [24]: 1.56 µg/mL (≈ 2.67 µM); MIC [25]: 0.78 µg/mL (≈ 1.33 µM); MIC [26]: 0.2 µg/mL (≈ 0.342 µM); MIC [27]: 100 µg/mL (≈ 171 µM)
2 | CO/N=C(\C(=O)NC1C(=O)N2C(C(=O)[O-])=C(C[n+]3ccc4cc(OC(C)=O)c(OC(C)=O)cc4c3)CSC12)c1csc(N)n1 (stereo not drawn) [Ex. 8, 3-(6,7-diacetoxy-2-isoquinolino)methyl-7-[2-(2-aminothiazol-4-yl)-2-methoxyiminoacetamido]-3-cephem-4-carboxylate] | 0.2 µg/mL (≈ 0.312 µM) | 50 µg/mL (≈ 78 µM) | 12.5 µg/mL (≈ 19.5 µM) | 0.025 µg/mL (≈ 0.039 µM) | 0.78 µg/mL (≈ 1.22 µM) | < 0.006 µg/mL | 0.2 µg/mL (≈ 0.312 µM) | 1.56 µg/mL (≈ 2.44 µM) | 0.05 µg/mL (≈ 0.078 µM) | 0.2 µg/mL (≈ 0.312 µM) | 0.78 µg/mL (≈ 1.22 µM) | 0.025 µg/mL (≈ 0.039 µM) | 0.1 µg/mL (≈ 0.156 µM) | 0.1 µg/mL (≈ 0.156 µM) | 0.78 µg/mL (≈ 1.22 µM) | 50 µg/mL (≈ 78 µM) | 100 µg/mL (≈ 156 µM) | 3.12 µg/mL (≈ 4.87 µM) | 0.0125 µg/mL (≈ 0.0195 µM) | 0.1 µg/mL (≈ 0.156 µM) | MIC ([5]; NO.42, 16 h): 0.0125 µg/mL (≈ 0.0195 µM); MIC [22]: 0.78 µg/mL (≈ 1.22 µM); MIC [23, 29]: 0.025 µg/mL (≈ 0.039 µM); MIC [24]: 6.25 µg/mL (≈ 9.76 µM); MIC [25]: 0.78 µg/mL (≈ 1.22 µM); MIC [26]: 0.2 µg/mL (≈ 0.312 µM); MIC [27]: > 100 µg/mL
3 | C=CCON=C(C(=O)NC1C(=O)N2C(C(=O)[O-])=C(C[n+]3ccc4cc(O)c(O)cc4c3)CS[C@H]12)c1csc(N)n1 (stereo partly drawn) [Ex. 3, 7-[2-allyloxyimino-2-(2-aminothiazol-4-yl)acetamido]-3-(6,7-dihydroxy-2-isoquinolinio)methyl-3-cephem-4-carboxylate] | < 0.006 µg/mL | 12.5 µg/mL (≈ 21.5 µM) | 6.25 µg/mL (≈ 10.7 µM) | 0.05 µg/mL (≈ 0.0858 µM) | 0.39 µg/mL (≈ 0.669 µM) | < 0.006 µg/mL | 0.1 µg/mL (≈ 0.172 µM) | 1.56 µg/mL (≈ 2.68 µM) | 0.05 µg/mL (≈ 0.0858 µM) | 3.12 µg/mL (≈ 5.36 µM) | 0.39 µg/mL (≈ 0.669 µM) | < 0.006 µg/mL | 0.025 µg/mL (≈ 0.0429 µM) | 0.1 µg/mL (≈ 0.172 µM) | 0.2 µg/mL (≈ 0.343 µM) | 50 µg/mL (≈ 85.8 µM) | 100 µg/mL (≈ 172 µM) | 0.39 µg/mL (≈ 0.669 µM) | 0.0125 µg/mL (≈ 0.0215 µM) | 0.1 µg/mL (≈ 0.172 µM) | MIC [5, 28]: 0.1 µg/mL (≈ 0.172 µM); MIC [22]: 0.39 µg/mL (≈ 0.669 µM); MIC ([23]; IAM1184, 16 h): 0.0125 µg/mL (≈ 0.0215 µM); MIC [24]: 0.78 µg/mL (≈ 1.34 µM); MIC [25]: 0.78 µg/mL (≈ 1.34 µM); MIC [26]: 0.2 µg/mL (≈ 0.343 µM); MIC [27]: > 100 µg/mL
